Data from PubChem BioAssay (NCI).
Where “and” joins values, the source holds several entries; their conditions need not be identical. Equal values may be shown once.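 Interpolation was linear, between the two tested concentrations surrounding the appropriate level; five concentrations were tested over 48 hours in 96-well plates. The concentration for full growth arrest is given as TGI.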 Where a SMILES comes first, the peptide text is derived from it. [ ]: non-standard residue; d: D form. The star is where a group is joined. Cbz = O=C(OCc1ccccc1)*; Boc = CC(C)(C)OC(=O)*; Aib = CC(C)(N)C(=O)O; OBn = c1ccc(CO*)cc1; OtBu = CC(C)(C)O*; βAla = NCCC(=O)O

What was measured:
Experiment in all cases: inhibition of tumour cell growth, NCI panel, 48 h
LOX IMVI melanoma = test system: LOX IMVI melanoma
SR leukemia = test system: SR leukemia
PC-3 prostate = test system: PC-3 prostate
SF-295 CNS = test system: SF-295 CNS
RXF 393 renal = test system: RXF 393 renal
CAKI-1 renal = test system: CAKI-1 renal
NCI-H460 lung = test system: NCI-H460 lung
HL-60(TB) leukemia = test system: HL-60(TB) leukemia
SF-268 CNS = test system: SF-268 CNS
HCC-2998 colon = test system: HCC-2998 colon

| Compound | TGI (LOX IMVI melanoma) [µM] | TGI (SR leukemia) [µM] | TGI (PC-3 prostate) [µM] | TGI (SF-295 CNS) [µM] | TGI (RXF 393 renal) [µM] | TGI (CAKI-1 renal) [µM] | TGI (NCI-H460 lung) [µM] | TGI (HL-60(TB) leukemia) [µM] | TGI (SF-268 CNS) | TGI (HCC-2998 colon) [µM] |
| --- | --- | --- | --- | --- | --- | --- | --- | --- | --- | --- |
| Nc1nc2c(ncn2C2C=CC(CO)O2)c(=O)[nH]1 (stereo not given) | > 100 | > 100 | > 100 | > 100 | > 100 | > 100 | > 100 |  |  |  |
| CSC1SCC2C(=O)N(C)C3(CC3C)C(=O)OCC(NC(=O)c3nc4ccccc4cc3O)C(=O)NC(C)C(=O)N(C)C1C(=O)N(C)C1(CC1C)C(=O)OCC(NC(=O)c1nc3ccccc3cc1O)C(=O)NC(C)C(=O)N2C (stereo not given) | < 0.0001 | < 0.0001 |  |  | < 0.0001 | 0.0135 | 0.875 | < 0.0001 | 0.00684 µM and 0.0159 µM | < 0.0001 |
| CSc1ncc2c(n1)-c1ccccc1OC2N1CCCC1 (stereo not given) | > 100 | > 100 | > 100 | > 100 | > 100 | 83.4 | > 100 | > 100 | > 100 µM |  |
| CCOC(=O)c1c(N2CCOCC2)[nH]c(=O)c(C(c2ccc(OC)cc2)c2c(O)c(C(=O)OCC)c(N3CCOCC3)[nH]c2=O)c1O | > 100 | > 100 | > 100 | > 100 | > 100 | > 100 | > 100 |  | > 100 µM | > 100 |
| CCOC(=O)c1sc2c(c1OC(=O)c1ccccc1)c(=O)n(-c1ccccc1)c(=S)n2-c1ccccc1 | > 100 |  | > 100 | > 100 | > 100 | > 100 | 41.5 | > 100 | > 100 µM | 74.5 |
| COc1cc(/C=C2/SC(c3ccccc3)N(c3cccc([N+](=O)[O-])c3)C2=O)cc(OC)c1OC (stereo not given) | > 100 |  |  | > 100 | > 100 | > 100 | > 100 | > 100 | > 100 µM | > 100 |
| CC(C)(C)OC(=O)CC(NC(=O)OC(C)(C)C)C(=O)NC(CCCCNC(=O)OCc1ccccc1)C(=O)NC(C)(C)C(=O)NCCC(=O)OCc1ccccc1 (stereo not given) (Boc-D(OtBu)K(Cbz)[Aib][βAla]-OBn; configuration not given here) | > 100 | > 100 | > 100 | > 100 | > 100 | > 100 | > 100 | > 100 | > 100 µM |  |
| COc1cc2ccnc3c2c(c1O)N(C)C=C3 | > 50.6 | > 100 | 29.5 | 28.6 | 30 | 20.6 | > 66 |  | 36.6 µM | 48.2 |
| C/C=C/[C@H]1O[C@@](OC)([C@@H](C)[C@H](O)[C@H](C)[C@H]2OC(=O)/C(OC)=C/C(C)=C/[C@@H](C)[C@@H](O)[C@@H](C)[C@@H](O)[C@H](C)C/C(C)=C/C=C/[C@@H]2OC)CC(OC2CC(O)C(OC(N)=O)C(C)O2)[C@@H]1C (stereo not given in full) | < 0.01 |  | 6.09 | < 0.01 | 15.7 | 11.7 | 4.17 |  | 22.3 µM | 13.3 |
| NC(=O)CC(Nc1ncc2c(n1)-c1ccccc1OC2)C(=O)O (stereo not given) | > 100 | > 100 | > 100 | > 100 | > 100 | > 100 | > 100 | 36.8 | > 100 µM |  |
